Data taken from PMC9837035 (Nature Communications, 2023).
Where two headings read alike, the source gives them in different places.

Experiments:
GLP = biological target: T1, GLP (Homo sapiens, UniProt Q9H9B1); test: Radioisotope-based methyltransferase assay (selectivity)
T1 sequence (Q9H9B1 1-1298): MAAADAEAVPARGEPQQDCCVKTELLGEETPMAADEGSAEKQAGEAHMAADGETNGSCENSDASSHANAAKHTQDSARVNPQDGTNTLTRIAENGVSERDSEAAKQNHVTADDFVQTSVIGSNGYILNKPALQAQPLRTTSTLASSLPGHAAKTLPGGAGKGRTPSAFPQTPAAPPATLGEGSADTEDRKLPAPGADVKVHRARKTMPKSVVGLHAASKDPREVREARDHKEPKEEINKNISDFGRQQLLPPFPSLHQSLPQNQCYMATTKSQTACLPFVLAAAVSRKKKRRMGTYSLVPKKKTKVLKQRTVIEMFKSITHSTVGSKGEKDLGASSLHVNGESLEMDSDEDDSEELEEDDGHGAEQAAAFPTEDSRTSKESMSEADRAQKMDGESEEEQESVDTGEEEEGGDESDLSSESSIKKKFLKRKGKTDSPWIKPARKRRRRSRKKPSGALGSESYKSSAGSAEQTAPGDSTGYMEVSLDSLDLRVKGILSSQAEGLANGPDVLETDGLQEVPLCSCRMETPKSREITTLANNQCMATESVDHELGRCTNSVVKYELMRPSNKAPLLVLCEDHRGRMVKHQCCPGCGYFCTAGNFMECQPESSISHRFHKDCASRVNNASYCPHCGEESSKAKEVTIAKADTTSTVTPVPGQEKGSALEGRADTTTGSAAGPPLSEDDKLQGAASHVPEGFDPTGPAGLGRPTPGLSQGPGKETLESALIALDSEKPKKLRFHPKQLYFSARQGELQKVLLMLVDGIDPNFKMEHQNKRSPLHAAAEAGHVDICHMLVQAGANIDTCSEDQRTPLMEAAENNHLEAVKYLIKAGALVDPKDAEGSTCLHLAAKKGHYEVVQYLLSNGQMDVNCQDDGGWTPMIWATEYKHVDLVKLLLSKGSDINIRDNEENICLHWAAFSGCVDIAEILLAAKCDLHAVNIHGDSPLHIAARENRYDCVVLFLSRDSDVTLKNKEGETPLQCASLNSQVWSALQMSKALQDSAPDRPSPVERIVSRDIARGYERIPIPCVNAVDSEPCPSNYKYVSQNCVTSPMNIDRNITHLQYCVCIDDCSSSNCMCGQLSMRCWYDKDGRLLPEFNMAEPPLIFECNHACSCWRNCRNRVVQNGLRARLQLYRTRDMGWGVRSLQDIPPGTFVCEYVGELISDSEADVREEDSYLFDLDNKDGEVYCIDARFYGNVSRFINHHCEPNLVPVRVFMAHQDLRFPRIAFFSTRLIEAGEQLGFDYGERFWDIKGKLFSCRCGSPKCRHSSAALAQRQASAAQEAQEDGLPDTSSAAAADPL

DNMT3b = DNMT3b (Homo sapiens, UniProt Q9UBC3); test: biochemical
MLL1 = biological target: T2, MLL1 (Homo sapiens, UniProt Q03164); test: Radioisotope-based methyltransferase assay (selectivity); type: biochemical
T2 construct: purchased Reaction Biology

PRMT6 = PRMT6 (Homo sapiens, UniProt Q96LA8); test: as above
CD34+ cells = test: Flow cytometry of erythroid differentiation (CD45, glycophorin A); type: cell-based, human
Method: For the analysis of HbF expression, HUDEP-2 cells or cells differentiated from human CD34 + progenitor cells were fixed in 0.05% glutaraldehyde for 10 min, then washed two times with PBS containing 2% FBS (PBS/2% FBS) and permeabilized with 0.1% Triton X-100 (prepared in PBS/2% FBS; Life Technologies) for 5 min. After washing with PBS/2% FBS two times, cells were stained with allophycocyanin (APC)-conjugated HbF antibody (1:1, Invitrogen, MHFH05). One million cells were incubated with the HbF–APC antibody for 30 min in the dark at 4 °C. Cells were washed twice with PBS/2% FBS, then suspended in 0.2 ml PBS/2% FBS and analyzed using a FACSCalibur (Becton Dickinson). To assess erythroid differentiation, hematopoietic cells differentiated from human CD34 cells were stained with FITC-conjugated CD45 antibody (1:1, Becton Dickinson, 555482) and APC-conjugated glycophorin A antibody (1:20, Becton Dickinson, 551336). Stained cells were suspended in 0.2 ml PBS/2% FBS containing 1 μg/ml propidium iodide (Sigma) and analyzed by FACSCalibur. The results of flow cytometer were further analyzed by FlowJo software (Becton Dickinson).

Chain of PRMT6 (Q96LA8 whole entry): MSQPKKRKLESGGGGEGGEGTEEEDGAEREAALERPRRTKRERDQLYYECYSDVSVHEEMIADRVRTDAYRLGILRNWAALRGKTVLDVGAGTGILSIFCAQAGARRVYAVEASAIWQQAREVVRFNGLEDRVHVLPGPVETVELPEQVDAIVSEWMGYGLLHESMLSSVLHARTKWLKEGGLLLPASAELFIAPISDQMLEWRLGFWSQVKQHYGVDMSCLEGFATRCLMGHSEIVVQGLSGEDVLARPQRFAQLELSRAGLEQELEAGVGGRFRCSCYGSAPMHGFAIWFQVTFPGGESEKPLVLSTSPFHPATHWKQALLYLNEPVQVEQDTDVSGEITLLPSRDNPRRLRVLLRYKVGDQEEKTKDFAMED

Row | Compound | IC50 (GLP) | IC50 (DNMT3b) | IC50 (MLL1; MLL1, 1 μM SAM) | IC50 (MLL1; MLL1, RK-701 in duplicate) | IC50 (PRMT6) | erythroid differentiation (CD34+ cells) | IC50 (GLP; 1 μM SAM) | IC50 (PRMT6; IC50, PRMT6, 1 μM SAM)
1 | Cc1c(C(=O)NC(CCC2CC2)C(=O)Nc2ccc(C#N)cc2)[nH]c2c1C(=O)CC(C)(C)C2 (centres unmarked) [RK-701] | 0.053 µM | > 100 µM | > 100 µM | > 100 µM | > 100 µM | without affecting cell viability or erythroid differentiation |  | 
2 | Nc1ncnc2c1ncn2[C@@H]1O[C@H](CSCC[C@H](N)C(=O)O)[C@@H](O)[C@H]1O [SAH, S-(5'-Adenosyl)-L-homocysteine, reference compound] |  | 0.112 µM | 1.3 µM | 1.31 µM |  |  | 3.86 µM | 0.41 µM
